Here are results for two compounds from US4871571A, “Dietetic foodstuff containing low calorie bulking agent” (Novo Industri A/S, priority 1987, dated 1989).

Where two headings read alike, the source gives them in different places.

Data set [1] relates to rats. As to conditions: rat, in vivo.
Method: The control diet consisted of the following ingredients in the indicated ratios:
Four other diets were prepared by substituting for corn starch corresponding to 10% by weight of the entire control diet equal amounts respectively: of the bulking agent according to the invention; Neosugar; Polydextrose; and sucrose.
Groups comprising five rats in each group were fed with these diets, and the digestible dry matter was measured after a preliminary period of 10 days by differential gravimetric determination.
The conditions of data set [2]: 10% w/w aqueous solution.
Method: After given storage periods of 2,6,24 hours the percentage decomposition was measured according to the formula [formula] wherein DP2^+ is the amount of oligomers with a DP of 2 or more.
Data set [3] deals with rats. The data set is described as follows: Weight increase of rats after an additional 6 weeks and digestibility calculated from it. The format is in vivo. As to conditions: after an additional 6 weeks, diet with 10% of substance. The procedure:
Later, after an additional 6 weeks the weight increase was measured.
The percentual weight difference, y % of the bulking agent, taking the sucrose as a control with an assumed digestibility of 100%, thus can be calculated according to the equation: [formula]
As the bulking agent is only 10% of the diet, the digestibility, x %, can be calculated according to the equation: […]
The digestibility of Polydextose and Neosugar can be calculated in a similar manner. In the following table the calculated 6 weeks digestibilities of the bulking agents are shown.

Consider Polydextrose, for which, in data set [1], the “Digestible dry matter of diet, mean” value was 91.8% and the “Digestible dry matter of the bulking agent, x %” value amounted to 68%.
On to `OC[C@H]1O[C@@](CO)(O[C@H]2O[C@H](CO)[C@@H](O)[C@H](O)[C@H]2O)[C@@H](O)[C@@H]1O` [Sucrose, sucrose], for which the percentage decomposition is reported as 0% in data set [2] (2 h, pH 5); 0% in data set [2] (2 h, pH 6); 0% in data set [2] (2 h, pH 7); 97.2% in data set [2] (5 h, pH 2); 31.8% in data set [2] (5 h, pH 3); 5.8% in data set [2] (5 h, pH 4). Further, the percentage decomposition in data set [2] (5 h, pH 5) is given as 0%; in data set [2] (5 h, pH 6) it was 0%; in data set [2] (5 h, pH 7), 0%; in data set [2] (6 h, pH 2) it was 15.0%; in data set [2] (6 h, pH 3), 3.7%; in data set [2] (6 h, pH 4), 0%. Further, the percentage decomposition in data set [2] (6 h, pH 5) is 0%; in data set [2] (6 h, pH 6) it was 0%; in data set [2] (6 h, pH 7), 0%; in data set [2] (24 h, pH 5), 0%; in data set [2] (24 h, pH 6), 0%; in data set [2] (24 h, pH 7) it was 0%. Moreover, the percentage decomposition in data set [2] (48 h, pH 2) is reported as 100%; in data set [2] (48 h, pH 3) it was 77.2%; in data set [2] (48 h, pH 4), 10.8%; in data set [2] (48 h, pH 5) it was 1.6%; in data set [2] (48 h, pH 6), 0%; in data set [2] (48 h, pH 7), 0%. Further, the “Digestible dry matter of diet, mean” value in data set [1] turned out to be 94.1%. Further, the Average weight increase in data set [3] is 220.11 g.
